According to PubChem BioAssay (NCI):
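All cell lines were grown in 96-well plates and treated with compound for 48 hours. GI50: concentration for 50% inhibition of growth. TGI marks complete inhibition of growth.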

Assays:
Assay in all cases: NCI-60 cell line screen, 48 h
786-0 renal = tested on: 786-0 renal
CCRF-CEM leukemia = tested on: CCRF-CEM leukemia
MOLT-4 leukemia = tested on: MOLT-4 leukemia
NCI-H522 lung = tested on: NCI-H522 lung
OVCAR-4 ovarian = tested on: OVCAR-4 ovarian
OVCAR-5 ovarian = tested on: OVCAR-5 ovarian
SK-MEL-2 melanoma = tested on: SK-MEL-2 melanoma
SN12C renal = tested on: SN12C renal
T-47D breast = tested on: T-47D breast
UO-31 renal = tested on: UO-31 renal

Row | Structure (SMILES) | GI50 (786-0 renal) | TGI (786-0 renal) | GI50 (CCRF-CEM leukemia) | TGI (CCRF-CEM leukemia) | GI50 (MOLT-4 leukemia) | TGI (MOLT-4 leukemia) | GI50 (NCI-H522 lung) | TGI (NCI-H522 lung) | GI50 (OVCAR-4 ovarian) | TGI (OVCAR-4 ovarian) | GI50 (OVCAR-5 ovarian) | TGI (OVCAR-5 ovarian) | GI50 (SK-MEL-2 melanoma) | TGI (SK-MEL-2 melanoma) | GI50 (SN12C renal) | TGI (SN12C renal) | GI50 (T-47D breast) | TGI (T-47D breast) | GI50 (UO-31 renal) | TGI (UO-31 renal)
1 | C#Cc1cccc(NC(=O)Nc2cccc(NC(=O)CCl)c2)c1 | 25000 nM | > 82.5 µM | 10900 nM | 68.6 µM | 12500 nM | 81.4 µM | 15200 nM | 48.6 µM | 12000 nM | 29.5 µM | 21.9 µM | 63.9 µM | 32700 nM | > 82.5 µM | 17.3 µM | 49.9 µM | 32.1 µM | > 82.5 µM | > 82500 nM | > 82.5 µM
2 | O=C1/C(=C/c2ccc([N+](=O)[O-])s2)Oc2ccc(Cl)cc21 | 887 nM | 3.21 µM | 273 nM | 0.72 µM | 371 nM | 2.47 µM | 198 nM | 0.435 µM | 406 nM | 0.897 µM | 1.53 µM | 3.01 µM | 260 nM | 0.624 µM | 0.593 µM | 1.79 µM | 0.309 µM | 1.64 µM | 152 nM | 0.295 µM
3 | COc1ccc(C2CC(c3ccc(OC)c(OC)c3)=NN2C(=O)c2cc(OC)c(OC)c(OC)c2)cc1 (centres undefined) | 2710 nM | > 100 µM | 4290 nM | > 100 µM | 7360 nM | > 100 µM | 560 nM |  | > 23800 nM | > 100 µM | 9.26 µM | > 100 µM | 3870 nM | > 100 µM | 5.71 µM | > 100 µM | 2.3 µM | > 100 µM | 864 nM | > 100 µM
4 | Cc1ccc(SCN2CCCCC2)cc1 (tested in a mixture with another compound) |  | 29.9 µM |  | 6.59 µM |  | 16.2 µM |  | 8.86 µM |  | 43.8 µM |  | 25.8 µM |  | 31.1 µM |  | 31.4 µM |  | > 100 µM |  | 30.2 µM
5 | CN(C)CCCn1c2c(c3ccc([N+](=O)[O-])cc3c1=O)C(=O)c1ccccc1-2 | 4750 nM | 21.2 µM | 3850 nM | 59 µM | 696 nM | > 100 µM | 4200 nM | > 100 µM | 27600 nM | > 100 µM | 15.3 µM | 49 µM | > 100000 nM | > 100 µM | 4.21 µM | 24.5 µM | 24.1 µM | > 100 µM | 4280 nM | 47.8 µM
6 | Cn1cc(C2=C(c3cn(CCCSC(=N)N)c4ccccc34)C(=O)NC2=O)c2ccccc21 | 4710 nM | 10.9 µM | 971 nM | 3.93 µM | 1930 nM | 8.08 µM | 1510 nM | 5.27 µM | 3230 nM | 9.88 µM | 4.51 µM | 18.6 µM | 1530 nM | 5.2 µM | 1.83 µM | 5.56 µM | 1.11 µM | 5.12 µM | 5590 nM | 16.2 µM
7 | Cc1nn(-c2ccccc2)c2ncc3c(c12)C(=O)N(Cc1ccccc1)C3=O | 1940 nM | 5.12 µM | 1990 nM | 16.8 µM | 6770 nM | 40.3 µM | 19800 nM | > 100 µM | 2180 nM | 5.48 µM | > 100 µM | > 100 µM | 13700 nM | 31.5 µM | 9.29 µM | > 100 µM | 4.86 µM | 20.7 µM | 2650 nM | 8.17 µM
8 | Cn1c([N+](=O)[O-])cnc1/C=C1\Oc2ccc(Cl)cc2C1=O | 942 nM | 3.39 µM | 199 nM | 0.823 µM | 320 nM | 3.32 µM | 528 nM | 2.19 µM | 1700 nM | 5.71 µM | 2.16 µM | 6.53 µM | 901 nM | 3.04 µM | 0.738 µM | 3.46 µM | 4.07 µM | 46.4 µM | 394 nM | 2.97 µM
9 | CCCCc1ccc(C(N)=O)nc1 | > 100000 nM | > 100 µM | > 100000 nM | > 100 µM | > 100000 nM | > 100 µM | > 100000 nM | > 100 µM | > 100000 nM | > 100 µM | > 100 µM | > 100 µM | > 100000 nM | > 100 µM | > 100 µM | > 100 µM | > 100 µM | > 100 µM | > 100000 nM | > 100 µM
10 | Cn1c(N)cc(=O)nc1N |  | > 100 µM |  | > 100 µM |  | > 100 µM |  | > 100 µM |  | > 100 µM |  | > 100 µM |  | > 100 µM |  | > 100 µM |  | > 100 µM |  | > 100 µM
11 | COC(=O)c1cc2c([nH]c3ccccc32)c(-c2nc3cc(N(S(=O)(=O)c4ccc(C)cc4)S(=O)(=O)c4ccc(C)cc4)c(OC)cc3cc2CO)n1 | 32100 nM | 87.8 µM | 10300 nM | 32 µM | 10600 nM | 25.7 µM | > 100000 nM | > 100 µM | > 100000 nM | > 100 µM | > 100 µM | > 100 µM | > 100000 nM | > 100 µM | > 100 µM | > 100 µM | > 100 µM | > 100 µM | > 100000 nM | > 100 µM
12 | O=C(CN1C(=O)c2ccccc2C1=O)NC1(C(=O)O)CCCC1 |  | > 100 µM |  | > 100 µM |  | > 100 µM |  | > 100 µM |  | > 100 µM |  | > 100 µM |  | > 100 µM |  | > 100 µM |  | > 100 µM |  | > 100 µM
13 | CCOC(=O)C(Cc1ccc(N(CCCl)CCCl)cc1)NC(=O)C(CC(C)C)NC(C)=O (centres undefined) | 1380 nM | 4.38 µM | 232 nM | 3.31 µM | 302 nM | 2.4 µM | 1130 nM | 2.65 µM | 1330 nM | 3.97 µM | 3.18 µM | 12 µM | 2610 nM | 5.13 µM | 0.999 µM | 10.9 µM | 0.642 µM | 3.48 µM | 512 nM | 2.91 µM
14 | CC1SC(c2cccc(Oc3ccccc3)c2)N(CCc2cccs2)C1=O (centres undefined) | 1200 nM | 2.83 µM | 747 nM | > 24 µM | 770 nM | 4.97 µM | 717 nM | 2.12 µM | 425 nM | 1.88 µM | 1.94 µM | 5.89 µM | 1030 nM | 2.31 µM | 1.25 µM | 2.7 µM | 0.594 µM | 5.11 µM | 469 nM | 1.9 µM
